Measured values published in patent US11135229B2, “Cat and dog sterilization by estrogenic compounds” (Insigna Inc., priority 2018, dated 2021).

Key:
[1] = system: premature male and female rats; type: in vivo
[2] = rat, in vivo, sc
Protocol: Hormonal measurement. Blood was collected from the tail vein or by cardiac puncture. The blood was centrifuged at 2000×g for 10 minutes; then serum was collected and preserved at −20° C. until further analyses. Serum estradiol concentrations were measured by using ELISA kits (DRG EIA4399) with a reportable range of 1.4-200 μg/ml.
A silicone capsule containing 17β-estradiol 3-benzoate (EB, Sigma E8515) was used as a device to elevate blood 17β-estradiol (E2) concentration to a supra-physiological level. Once implanted subcutaneously, the silicone capsule with EB (called eSpay) releases EB for an extended period of time. […] Therefore, EB that contained 300 μg of EB (herein EB300) was made by dissolving 300 μg of EB in 5 μl of sesame oil (Sigma S3547), and it was inserted into a silicone tube (Dow Corning 508-005) that was later closed with silicone sealant (Factor II, Inc. Medical Adhesive A-100). The capsule was kept at room temperature until use. The EB300 capsule was approximately 8 mm long and 2.16 mm in diameter. […]
The efficacy of the EB300 capsule as a device to elevate E2 levels in its recipient was tested after implanting it on the day of birth (post-natal day 0, PND 0). Serum and hypothalami were collected at PND 1, 2, 3, 4, 7, 10, 21, and 30, and E2 concentrations were measured.

[3] = premature male rats, capsule injected subcutaneously

For C[C@]12CC[C@@H]3c4ccc(OC(=O)c5ccccc5)cc4CC[C@H]3[C@@H]1CC[C@@H]2O [EB, 17β-Estradiol 3-benzoate], the Female reproductive system ([1]; premature female rats, capsule injected) was “preventing the females from undergoing menstrual cycling and from producing ova”, the “Sterility of male rats” value [1, 3] was “permanently sterile” and the “Testicular testosterone and sperm production” value [1, 3] was “did not produce testosterone or sperm”. The Death or sickness ([1]; rat, in vivo) was “no subject animal died or exhibited sickness”, the “Immune system, liver and kidney function examination” value ([1]; rat, in vivo) was “no clinical pathology” and the “Period of sustained, high blood E2 level” value [2] was “about three weeks”.
